This passage reports T/C results from PubChem BioAssay AID210 (DTP/NCI, 2004).

For this experiment, the system named is CD2F1 mice, ip Colon 26 adenocarcinoma, median survival T/C. Description: NCI In Vivo Anticancer Drug Screen. Data for tumor model Colon 26 Adenocarcinoma (intraperitoneal) in CD2F1 (CDF1) mice. To be noted: endpoint: median survival time, higher = longer survival. As to the method: The antitumor activity of compounds was measured in mice bearing transplantable tumors. Survival or tumor size were measured and the results are expressed as the measurement made in the treated group (T) divided by the measurement made in the vehicle treated control group (C). The tumor model used in this assay is Colon 26 Adenocarcinoma (intraperitoneal) in CD2F1 (CDF1) mice

Values joined by “and” are separate entries in the source; they are usually repeats but may differ in a detail not shown here. Equal entries are not always repeated. Inconclusive results and toxic doses are left out. *1 amine or outer side, *2 acyl side, *3 side chain or, on linkers, in order; H or OH if unused. Where a SMILES comes first, the peptide text is derived from it. Bridges are numbered along the chain shown (N, C = ends). Roman numbers before positions name the chains, in order. [ ]: non-standard residue; d: D form. Actinocin(9to1) = Cc1c2oc3c(C)ccc(C(=O)[*:1])c3nc-2c(C(=O)[*:2])c(N)c1=O; NMeV = CN[CH](C(=O)O)C(C)C; Aze = O=C(O)[CH]1CCN1; Sar = CNCC(=O)O

As to `CN1C(=O)NC(c2ccc(Cl)cc2)(c2ccc(Cl)cc2)C1=O`, the T/C reads like this: (dose: 12.5 mg/kg/injection, schedule: Q04DX002 (ip), vehicle: distilled water + Tween-80) 106 % of control; (dose: 12.5 mg/kg/injection, schedule: Q04DX002 (ip), vehicle: saline with Tween-80) 105 % of control; (dose: 25.0 mg/kg/injection, schedule: Q04DX002 (ip), vehicle: distilled water + Tween-80) 100 % of control; (dose: 25.0 mg/kg/injection, schedule: Q04DX002 (ip), vehicle: saline with Tween-80) 111 % of control; (dose: 50.0 mg/kg/injection, schedule: Q04DX002 (ip), vehicle: distilled water + Tween-80) 114 % of control; (dose: 50.0 mg/kg/injection, schedule: Q04DX002 (ip), vehicle: saline with Tween-80) 97 % of control. Besides, the T/C (dose: 100.0 mg/kg/injection, schedule: Q04DX002 (ip), vehicle: saline with Tween-80) is 102 % of control; the T/C (dose: 200.0 mg/kg/injection, schedule: Q04DX002 (ip), vehicle: saline with Tween-80) is 91 % of control; the T/C (dose: 400.0 mg/kg/injection, schedule: Q04DX002 (ip), vehicle: saline with Tween-80) was 91 % of control.
As to `CC[N+](CC)(CC)CC`, the T/C reads like this: (dose: 1.56 mg/kg/injection, schedule: Q04DX003 (ip), vehicle: saline with Tween-80) 114 % of control; (dose: 3.12 mg/kg/injection, schedule: Q04DX003 (ip), vehicle: saline with Tween-80) 107 % of control and 113 % of control; (dose: 6.25 mg/kg/injection, schedule: Q04DX003 (ip), vehicle: saline with Tween-80) 111 % of control; (dose: 12.5 mg/kg/injection, schedule: Q04DX003 (ip), vehicle: saline with Tween-80) 175 % of control; (dose: 12.5 mg/kg/injection, schedule: Q04DX003 (oral), vehicle: saline with Tween-80) 109 % of control; (dose: 25.0 mg/kg/injection, schedule: Q04DX003 (oral), vehicle: saline with Tween-80) 105 % of control. Further, the T/C (dose: 50.0 mg/kg/injection, schedule: Q04DX003 (oral), vehicle: saline with Tween-80) was 104 % of control and the T/C (dose: 100.0 mg/kg/injection, schedule: Q04DX003 (oral), vehicle: saline with Tween-80) was 94 % of control.
Turning to `CC(=O)OC1C2(CC3N4C(=O)C5(CO)SSC4(CC31O)C(=O)N5C)OC(C)C(C)(C)C2=O` (stereo not given), the T/C was 97 % of control (dose: 1.25 mg/kg/injection, schedule: Q04DX002 (ip), vehicle: saline); 108 % of control (dose: 2.5 mg/kg/injection, schedule: Q04DX002 (ip), vehicle: saline); 87 % of control (dose: 5.0 mg/kg/injection, schedule: Q04DX002 (ip), vehicle: saline).
As to `[I][Hg][CH2]C1OCCOC1[CH2][Hg][I]` (stereo not given), the T/C runs as follows: (dose: 25.0 mg/kg/injection, schedule: Q04DX003 (ip), vehicle: Klucel (hydroxypropylcellulose) (HPC)) 103 % of control; (dose: 50.0 mg/kg/injection, schedule: Q04DX003 (ip), vehicle: Klucel (hydroxypropylcellulose) (HPC)) 100 % of control.
For the compound `CC[C@]1(O)C[C@H]2CN(CCc3c([nH]c4ccccc34)[C@@](C(=O)OC)(c3cc4c(cc3OC)N(C=O)[C@H]3[C@@](O)(C(=O)OC)[C@H](OC(C)=O)[C@]5(CC)C=CCN6CC[C@]43[C@@H]65)C2)C1`, the T/C was 112 % of control and 115 % of control (dose: 0.95 mg/kg/injection, schedule: Q07DX003 (ip), vehicle: saline); 120 % of control and 123 % of control (dose: 1.4 mg/kg/injection, schedule: Q07DX003 (ip), vehicle: saline); 105 % of control (dose: 2.1 mg/kg/injection, schedule: Q07DX003 (ip), vehicle: saline); 99 % of control (dose: 3.0 mg/kg/injection, schedule: Q07DX003 (ip), vehicle: saline).
In the case of `COC1=CC(=O)N(C(=O)C2CSC(C(CO)NC(=O)c3csc(/C=N/O)n3)=N2)C1` (stereo not given), the T/C reads like this: (dose: 50.0 mg/kg/injection, schedule: Q04DX002 (ip), vehicle: Klucel (hydroxypropylcellulose) (HPC)) 93 % of control; (dose: 100.0 mg/kg/injection, schedule: Q04DX002 (ip), vehicle: Klucel (hydroxypropylcellulose) (HPC)) 105 % of control; (dose: 200.0 mg/kg/injection, schedule: Q04DX002 (ip), vehicle: Klucel (hydroxypropylcellulose) (HPC)) 101 % of control; (dose: 400.0 mg/kg/injection, schedule: Q04DX002 (ip), vehicle: Klucel (hydroxypropylcellulose) (HPC)) 105 % of control.
With `CCC(C)C(=O)O[C@H]1C(=O)O[C@@H]2C[C@H]3C(C)=CC(=O)[C@@H](O)[C@]3(C)[C@H]3[C@@H](O)[C@H](O)[C@@]4(C)OC[C@]32[C@@H]14` (stereo not given in full), the T/C runs as follows: (dose: 0.5 mg/kg/injection, schedule: Q04DX002 (ip), vehicle: saline) 102 % of control; (dose: 1.0 mg/kg/injection, schedule: Q04DX002 (ip), vehicle: saline) 98 % of control; (dose: 2.0 mg/kg/injection, schedule: Q04DX002 (ip), vehicle: saline) 97 % of control.
Regarding `COC(OC(CO)C(O)S(=O)(=O)O)C(O)S(=O)(=O)O` (stereo not given), the T/C is 97 % of control (dose: 12.5 mg/kg/injection, schedule: Q04DX003 (ip), vehicle: saline); 102 % of control (dose: 25.0 mg/kg/injection, schedule: Q04DX003 (ip), vehicle: saline); 102 % of control (dose: 50.0 mg/kg/injection, schedule: Q04DX003 (ip), vehicle: saline); 108 % of control (dose: 100.0 mg/kg/injection, schedule: Q04DX003 (ip), vehicle: saline); 109 % of control (dose: 200.0 mg/kg/injection, schedule: Q04DX003 (ip), vehicle: saline); 100 % of control (dose: 400.0 mg/kg/injection, schedule: Q04DX003 (ip), vehicle: saline).
Turning to `CSc1cc(=O)n2c3ccccc3c3ccnc1c32`, the T/C runs as follows: (dose: 2.5 mg/kg/injection, schedule: Q04DX003 (ip), vehicle: saline with Tween-80) 100 % of control; (dose: 5.0 mg/kg/injection, schedule: Q04DX003 (ip), vehicle: saline with Tween-80) 115 % of control; (dose: 20.0 mg/kg/injection, schedule: Q04DX003 (ip), vehicle: saline with Tween-80) 151 % of control.
Consider `O=NN(CCCl)C(=O)NC1CCCCC1`, for which the T/C is 121 % of control (dose: 10.0 mg/kg/injection, schedule: Q04DX003 (ip), vehicle: carboxymethylcellulose (CMC)); 196 % of control (dose: 40.0 mg/kg/injection, schedule: Q04DX003 (ip), vehicle: carboxymethylcellulose (CMC)); 159 % of control (dose: 80.0 mg/kg/injection, schedule: Q04DX003 (ip), vehicle: carboxymethylcellulose (CMC)).
Take `Cc1c2oc3c(C)ccc(C(=O)NC4C(=O)NC(C(C)C)C(=O)N5CCC5C(=O)N(C)CC(=O)N(C)C(C(C)C)C(=O)OC4C)c3nc-2c(C(=O)NC2C(=O)NC(C(C)C)C(=O)N3CCC3C(=O)N(C)CC(=O)N(C)C(C(C)C)C(=O)OC2C)c(N)c1=O` (stereo not given) (I: TV[Aze][Sar][NMeV] / II: TV[Aze][Sar][NMeV]; ester I:1-I:C, II:1-II:C; linker I:N-II:N via Actinocin(9to1); configuration not given here): the T/C (dose: 270.0 micrograms/kg/injection, schedule: Q04DX003 (ip), vehicle: saline + alcohol) is 114 % of control.
On to `C=C1C(=O)C23C(O)CC4C5(C)CCCC4(C(O)OC5)C2C(OC(C)=O)CC1C3O` (stereo not given), for which the T/C (dose: 8.0 mg/kg/injection, schedule: Q04DX002 (ip), vehicle: saline with Tween-80) was 116 % of control; the T/C (dose: 16.0 mg/kg/injection, schedule: Q04DX002 (ip), vehicle: saline with Tween-80) was 109 % of control; the T/C (dose: 32.0 mg/kg/injection, schedule: Q04DX002 (ip), vehicle: saline with Tween-80) was 92 % of control; the T/C (dose: 64.0 mg/kg/injection, schedule: Q04DX002 (ip), vehicle: saline with Tween-80) was 103 % of control.
With `O=NN(CCCl)C(=O)NCCCl`, the T/C (dose: 4.0 mg/kg/injection, schedule: Q04DX003 (ip), vehicle: saline + alcohol) is 168 % of control; the T/C (dose: 8.0 mg/kg/injection, schedule: Q04DX003 (ip), vehicle: saline + alcohol) is 250 % of control; the T/C (dose: 16.0 mg/kg/injection, schedule: Q04DX003 (ip), vehicle: saline + alcohol) is 335 % of control; the T/C (dose: 20.0 mg/kg/injection, schedule: Q04DX003 (oral), vehicle: saline + alcohol) is 161 % of control; the T/C (dose: 33.0 mg/kg/injection, schedule: Q04DX003 (oral), vehicle: saline + alcohol) was 255 % of control; the T/C (dose: 53.0 mg/kg/injection, schedule: Q04DX003 (oral), vehicle: saline + alcohol) is 289 % of control. Further, the T/C (dose: 85.0 mg/kg/injection, schedule: Q04DX003 (oral), vehicle: saline + alcohol) was 285 % of control.
Consider `O=S(=O)(O)O`, for which the T/C is 100 % of control (dose: 30.0 mg/kg/injection, schedule: Q01DX009 (ip), vehicle: saline with Tween-80); 95 % of control (dose: 44.0 mg/kg/injection, schedule: Q01DX009 (ip), vehicle: saline with Tween-80); 101 % of control (dose: 67.0 mg/kg/injection, schedule: Q01DX009 (ip), vehicle: saline with Tween-80).
